Measurements reported in patent US20230381142A1, “ANTILEISHMANIAL COMPOUNDS, COMPOSITIONS AND USE THEREOF” (TRUSTEES OF BOSTON UNIVERSITY, priority 2022, published 2023).

Experiments:
[1] = UCSD infection assay, host cell cytotoxicity (CC50); format: cell-based; settings: mouse, B10R host cells infected with L. donovani
Description: (§1) Assay Conditions D: B10R cells (CVCL_0155) were seeded at 300 cells/well, and L. donovani WT promastigotes in stationary phase (7th day after passage) were added at 6,000 parasites/well (ratio of 20 parasites/cell). Both cells and parasites were seeded in DMEM High-Glucose medium (Gibco, cat. no. 11995065) containing 5% Fetal Bovine Serum (Sigma-Aldrich, cat. no. F2442) and 1% Penicillin-Streptomycin (Gibco, cat. no. 15140122). Cells and parasites were incubated in the presence of the compounds for 72 h at 37° C. and 5% C02. Plates were then fixed with 4% formaldehyde solution for at least 1 h, then washed with 1×PBS and stained with 5 μg/mL DAPI. Plates were read using an ImageXpress microscope (Molecular Devices) and analyzed by MetaXpress software (Molecular Devices) using a custom module optimized for this assay. […] Compounds were tested in a 10-point 2-fold serial dilution in 3 technical replicates, and 2 biological replicates. After 72 h, plates were fixed and stained with DAPI as described above. Images were acquired on an ImageXpress microscope, and analyzed using the MetaXpress custom module.
as §1, with “Compounds were obtained as 0.2 μmoles of dried film for primary single point screening. Each compound was diluted in DMSO to 10 μM final testing concentration. These compounds were tested in 2 biological replicates. The compounds were pre-spotted onto 384-well assay plates in single concentration.” for “Assay Conditions D:”, “CO2.” for “C02.”, “module. The DRCs were plotted, half-effective concentration (EC50) and half-cytotoxic concentration (CC50) were calculated using GraphPad Prism Software, version 6.05 (GraphPad Software, San Diego, CA).” for “module.”

[2] = test system: L. braziliensis (strain BA788) in J774 cells; assay: J774 luciferase infection assay (Assay Conditions E); format: cell-based, Leishmania braziliensis; settings: for L. braziliensis amastigotes EC75 (J774 cells): footnote e
Description: Assay Conditions E: J774 cells (ATCC J774A.1 were grown in DMEM supplemented with 10% Fetal Bovine Serum (FBS) and 1% Penicillin-Streptomycin at 37° C. in 5% CO2. Leishmania parasites expressing luciferase and GFP were grown as described in Front. Cell. Infect. Microbiol (2019) 9:237. J774 cells were seeded in microwell plates at 3×10^5 cells/mL density. Cells were washed with PBS and incubated with complete DMEM medium containing stationary phase Leishmania promastigotes (L. major: strain Friedlin; L. braziliensis, strain BA788) at a 1:10 parasite-cell ratio for 24 h. Cells were washed with PBS. Cells and compounds were incubated for 48 h at 37° C. and 5% C02. Compounds were tested in 8-point 2-fold serial dilution in 4 technical replicates, and 2 biological replicates. After 48 h, OneTiterGlo (Promega) (100 μl) was added to each well. Plates were incubated for 15 min and bioluminescence was measured using a plate reader (Molecular Devices). Effective concentration inducing 75% activity (EC75) was calculated using GraphPad Prism Software (version 9.0).

[3] = test system: L. donovani intracellular amastigotes in B10R cells; assay: UCSD L. donovani infection assay (Assay Conditions D); format: cell-based; settings: B10R cells; for L. donovani amastigotes EC75 (B10R cells): footnote d; for EC50: Leishmania donovani, values marked d, read-out: L. donovani amastigotes EC50 (B10R cells)
Method in brief: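 B10R cells (300/well) infected with stationary-phase L. donovani WT promastigotes at 20 parasites/cell in DMEM high-glucose, 5% FBS, with compounds 72 h at 37° C., 5% CO2. Formaldehyde-fixed, DAPI-stained, imaged by high-content microscopy; 10-point 2-fold dilutions (screen at 10 μM) gave EC50 and host CC50.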

THP-1 cells = assay: Host THP-1 cell cytotoxicity in the CDIPD high content screen; format: cell-based, human; settings: Homo sapiens, THP-1; 10 μM; footnote b; read-out: THP-1 host cell % growth inhibition at 10 μM
Description: (§2) Assay Conditions B: THP-1 cells (human acute monocytic leukemia cell line—ATCC TIB202) were grown in RPMI supplemented with 10% Fetal Bovine Serum (FBS) and 50 μM 2-mercaptoethanol at 37° C. in 5% CO2. THP-1 were seeded in microwell plates at 5×10^5 cells/mL density and treated with 0.1 μM phorbol myristate acetate (PMA, Sigma) at 37° C. for 48 h for differentiation into adherent, non-dividing macrophages. After activation by PMA, cells were washed and incubated with complete RPMI medium containing stationary phase Leishmania promastigotes (L. major: strain LV39; L. donovani, strain 1S/Cl2D) at a 1:15 parasite-cell ratio. Compounds were added and incubated at 37° C. for 72 h. Cells were then washed with phosphate-buffered saline (PBS), fixed for 30 minutes with 4% formaldehyde, rinsed again with PBS, stained for 2 h with 4′,6′-diamidino-2-phenylindole (DAPI 300 nM) and finally washed with PBS. In a collaborative effort to identify new antileishmanial chemotypes with minimal host cell cytotoxicity, compounds from the Boston University Center for Molecular Discovery (BUCMD) screening collection were assessed in a phenotypic, high content primary screen at the University of California's Center for Discovery and Innovation in Parasitic Diseases (CDIPD) for the ability to inhibit growth of L. donovani intracellular amastigotes infecting THP-1 cells. […] Dose-response testing in L. donovani (both intracellular amastigotes and promastigotes) confirmed concentration-dependent growth inhibition of both morphologies of the parasite at low micromolar EC50 values for both compounds (Table 1).

[4] = test system: L. donovani intracellular amastigotes infecting THP-1 cells; assay: High content intracellular amastigote assay in THP-1 cells (Assay Conditions B; CDIPD screen); format: cell-based, Leishmania donovani; settings: 10 μM; THP-1 cells; footnote b
Description: as §2

[5] = GSK inMac assay, host cell toxicity readout (LD MAC); format: cell-based, human; settings: human; footnote c; read-out: THP-1 Host Cell CC50
Method in brief: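 Intramacrophage L. donovani assay in THP-1 macrophages; host toxicity taken from host cell number per well, giving MAC EC50. Run alongside amastigote-per-cell and infected-cell readouts in the same wells.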

[6] = test system: L. donovani intracellular amastigotes infecting THP-1 macrophages; assay: GSK intramacrophage L. donovani assay (LD AMMAC, inMac; Assay Conditions C); format: cell-based; settings: Leishmania donovani; THP-1 cells; values marked c; read-out: L. donovani amastigotes EC50 (THP-1 cells)
Method in brief: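 L. donovani amastigotes within THP-1 macrophages; EC50 based on average intracellular amastigotes per infected cell (AMMAC). Infected-cell percentage (INFCELL) and host-cell number (MAC) also read, the latter as toxicity output.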

Cc1cc(N2C(=O)c3[nH]nc(CC(C)C)c3C2c2ccccc2Cl)ccn1 (stereo not shown) [BUCMD00639]
CC50 at 72 h ([1]; footnote d): 20 µM
L. braziliensis amastigotes EC75 (J774 cells) [2]: >10 µM
L. donovani amastigotes EC75 (B10R cells) [3]: 0.4 µM

Cc1cc(F)ccc1C1c2c(CC(C)C)n[nH]c2C(=O)N1c1cnn(C(C)C)c1 (stereo not shown) [BUCMD00673]
L. braziliensis amastigotes EC75 (μM, J774 cells) [2]: >10 µM
L. donovani amastigotes EC75 (μM, B10R cells) [3]: >10 µM

COc1ccc(N2C(=O)c3[nH]nc(CC(C)C)c3C2c2ccc(F)cc2Cl)cn1 (stereo not shown) [BUCMD00684]
L. braziliensis amastigotes EC75 (μM, J774 cells) [2]: 10.0 µM
L. donovani amastigotes EC75 (μM, B10R cells) [3]: >10 µM

COc1ccc(N2C(=O)c3[nH]nc(CC(C)C)c3C2c2ccc(Cl)cc2F)cn1 (stereo not shown) [BUCMD00685]
L. braziliensis amastigotes EC75 (μM, J774 cells) [2]: >10 µM
L. donovani amastigotes EC75 (μM, B10R cells) [3]: 1.7 µM

COc1ccc(N2C(=O)c3[nH]nc(CC(C)C)c3C2c2ccccc2C)cn1 (stereo not shown) [BUCMD00687]
L. braziliensis amastigotes EC75 (μM, J774 cells) [2]: >10 µM
L. donovani amastigotes EC75 (μM, B10R cells) [3]: >10 µM

COc1ccc(N2C(=O)c3[nH]nc(CC(C)C)c3C2c2ccc(F)cc2F)cn1 (stereo not shown) [BUCMD00688]
L. braziliensis amastigotes EC75 (μM, J774 cells) [2]: >10 µM
L. donovani amastigotes EC75 (μM, B10R cells) [3]: 3.3 µM

COc1ccc(N2C(=O)c3[nH]nc(CC(C)C)c3C2c2ccccc2C(F)(F)F)cn1 (stereo not shown) [BUCMD00689]
L. braziliensis amastigotes EC75 (μM, J774 cells) [2]: >10 µM
L. donovani amastigotes EC75 (μM, B10R cells) [3]: >10 µM

COc1ccc(N2C(=O)c3[nH]nc(CC(C)C)c3C2c2sccc2C)cn1 (stereo not shown) [BUCMD00690]
L. braziliensis amastigotes EC75 (μM, J774 cells) [2]: >10 µM
L. donovani amastigotes EC75 (μM, B10R cells) [3]: 9.7 µM

COc1ccc(N2C(=O)c3[nH]nc(CC(C)C)c3C2c2ccccc2F)cn1 (stereo not shown) [BUCMD00691]
L. braziliensis amastigotes EC75 (μM, J774 cells) [2]: >10 µM
L. donovani amastigotes EC75 (μM, B10R cells) [3]: 4.9 µM

COc1ccc(N2C(=O)c3[nH]nc(CC(C)C)c3C2c2ccc(F)c(F)c2)cn1 (stereo not shown) [BUCMD00692]
L. braziliensis amastigotes EC75 (μM, J774 cells) [2]: >10 µM
L. donovani amastigotes EC75 (μM, B10R cells) [3]: >10 µM

CC(C)Cc1n[nH]c2c1C(c1ccc(F)cc1Cl)N(c1cncc(F)c1)C2=O (stereo not shown) [BUCMD00694]
CC50 at 72 h ([1]; footnote d): 10 µM
L. braziliensis amastigotes EC75 (J774 cells) [2]: >10 µM
L. donovani amastigotes EC75 (B10R cells) [3]: 0.4 µM

C#CCCOc1ccc(C2c3c(CC(C)C)n[nH]c3C(=O)N2c2ccc(OC)cc2)c(Cl)c1 (stereo not shown) [BUCMD00728]
L. braziliensis amastigotes EC75 (μM, J774 cells) [2]: >10 µM
L. donovani amastigotes EC75 (μM, B10R cells) [3]: >10 µM

COc1ncc(N2C(=O)c3[nH]nc(CC(C)C)c3C2c2ccc(F)cc2C)cc1F (stereo not shown) [BUCMD00729]
CC50 at 72 h ([1]; footnote d): 6.31 µM
L. braziliensis amastigotes EC75 (J774 cells) [2]: 2.0 µM
L. donovani amastigotes EC75 (B10R cells) [3]: 0.4 µM

C#CCCCCOc1ccc(C2c3c(CC(C)C)n[nH]c3C(=O)N2c2ccc(OC)nc2)c(Cl)c1 (stereo not shown) [BUCMD00738]
CC50 at 72 h ([1]; host B10R cells): 7.94 µM
L. braziliensis amastigotes EC75 (μM, J774 cells) [2]: >10 µM
L. donovani amastigotes EC75 (μM, B10R cells) [3]: >10 µM

COc1ccc(N2C(=O)c3[nH]nc(C(C)C)c3C2c2ccc(C)cc2)cc1 (stereo not shown) [CMLD007169]
inhibition at 10 µM (THP-1 cells): < 10%
L. donovani amastigotes % GI at 10 μM (THP-1 cells) [4]: 0.0%

COc1ccc(N2C(=O)c3[nH]nc(C(C)C)c3C2c2ccc(F)cc2)cc1 (stereo not shown) [CMLD007188]
inhibition at 10 µM (THP-1 cells): < 10%
L. donovani amastigotes % GI at 10 μM (THP-1 cells) [4]: 0.0%

COc1ccc(N2C(=O)c3[nH]nc(-c4ccccc4)c3C2c2ccccc2)cc1 (stereo not shown) [CMLD007203]
inhibition at 10 µM (THP-1 cells): < 10%
L. donovani amastigotes % GI at 10 μM (THP-1 cells) [4]: 0.0%

COc1ccc(N2C(=O)c3[nH]nc(C)c3C2c2ccccc2)cc1 (stereo not shown) [CMLD007219]
inhibition at 10 µM (THP-1 cells): < 10%
L. donovani amastigotes % GI at 10 μM (THP-1 cells) [4]: 0.0%

COc1ccc(N2C(=O)c3[nH]nc(C)c3C2c2ccc(F)cc2)cc1 (stereo not shown) [CMLD007221]
inhibition at 10 µM (THP-1 cells): < 10%
L. donovani amastigotes % GI at 10 μM (THP-1 cells) [4]: 0.0%

COc1ccc(N2C(=O)c3[nH]nc(-c4ccccc4)c3C2c2ccc(F)cc2)cc1 (stereo not shown) [CMLD007235]
inhibition at 10 µM (THP-1 cells): 30%
L. donovani amastigotes % GI at 10 μM (THP-1 cells) [4]: 0.0%

COc1ccc(N2C(=O)c3[nH]nc(CC(C)C)c3C2c2ccc(F)cn2)cc1 (stereo not shown) [CMLD011100]
CC50 [5]: > 50 µM
L. braziliensis amastigotes EC75 (J774 cells) [2]: >10 µM
L. donovani amastigotes EC75 (B10R cells) [3]: 4.4 µM
EC50 [6]: 10 µM

COc1ccccc1C1c2c(CC(C)C)n[nH]c2C(=O)N1c1ccc(N(C)C)cc1 (stereo not shown) [CMLD011552]
CC50 at 72 h ([1]; footnote d): 3.98 µM
CC50 [5]: 3.5 µM
L. braziliensis amastigotes EC75 (J774 cells) [2]: >10 µM
L. donovani amastigotes EC75 (B10R cells) [3]: 0.1 µM
EC50 [3]: 100 nM

Cc1cc(F)ccc1C1c2c(CC(C)C)n[nH]c2C(=O)N1c1ccc(Br)cc1 (stereo not shown) [CMLD011565]
CC50 at 72 h ([1]; footnote d): 3.98 µM
CC50 [5]: 3 µM
L. braziliensis amastigotes EC75 (J774 cells) [2]: 5.0 µM
L. donovani amastigotes EC75 (B10R cells) [3]: 0.1 µM
EC50 [3]: 100 nM
